Measurements from patent publication US9969762B2.
≈ marks a conversion by molar mass, not a printed value. Like-named read-outs stand apart in the source and are kept apart here.

Columns and labels:
[1] = tested on: Phytophthora infestans; assay: microbe, parasite or virus in culture; format: cell-based; conditions: for Average diameters of inhibition zone: after 6 days, 20 mg in 200 μl distilled water, spots of 10 μl
[2] = tested on: Fusarium sambucinum; conditions: compound in methanol, more than 10 days at 20° C.
Description: (§1) The antifungal activity of the N-alkyl-glycosyl(di)amine derivatives of formula (I) and of the N-alkyl-glycamine derivatives of formula (III) synthesized according to the process of the invention was evaluated on two fungi: Fusarium roseum and Fusarium sambucinum.
(§2) For this, 500 μl of solution comprising the test derivative, dissolved in DMSO or methanol, are mixed with 19.5 ml of malt agar medium (Sigma aldrich) allowing the growth of these two Fusarium isolates. The test derivative is prepared in 2 ml of methanol, then mixed with 18 ml of malt agar medium (Sigma aldrich). A spot of 10 μl of culture of each Fusarium is then deposited at the center of each Petri dish. After 10 days of incubation at 20° C., the growth diameters are measured.
(§3) The range of concentrations of N-alkyl-glycosyl(di)amine derivatives of formula (I) tested ranges from 0.1 to 25 μmol/ml.
(§4) The Fusarium growth on media containing the various molecules is compared with that obtained only with DMSO or methanol.
(§5) The same antifungal evaluation protocol as the one previously described with the compound Ij was applied for other N-alkyl-glycosyl(di)amine derivatives of formula (I) and N-alkyl-glycamine derivatives of formula (III) at concentrations ranging from 1 to 20 μmol/ml.
(§6) 2 ml of solution comprising the test compound dissolved in methanol are mixed with 18 ml of agar malt medium (Sigma aldrich) allowing the growth of these two Fusarium isolates. A spot of 10 μl of culture of each Fusarium is then deposited at the center of each Petri dish. After more than 10 days of incubation at 20° C., the growth diameters are measured.

[3] = tested on: Fusarium roseum; conditions: compound in methanol, more than 10 days at 20° C.
Description: as §1, §2, §3, §4, §5, §6

[4] = tested on: Dickeya dianthicola; assay: Antibacterial activity (MIC and MBC) in TY medium; format: cell-based; conditions: 36 h of culture at 30° C.; for MIC: TY medium; for MBC: plated on TY agar
[5] = tested on: Agrobacterium tumefaciens, Pectobacterium atrosepticum and Dickeya dianthicola bacteria; assay: Antibacterial activity, summary statements over the bacteria tested; format: cell-based; conditions: for inhibition of the growth of the bacteria (in words): after 36 h of incubation at 30° C., compared with 4-NPO
[6] = tested on: Agrobacterium tumefaciens; assay: Antibacterial activity (MIC and MBC) in TY medium; format: cell-based; conditions: 36 h of culture at 30° C.; for MIC: TY medium; for MBC: plated on TY agar
[7] = tested on: Pectobacterium atrosepticum; assay: Antibacterial activity (MIC and MBC) in TY medium; format: cell-based; conditions: 36 h of culture at 30° C.; for MIC: TY medium; for MBC: plated on TY agar

Row | Compound | Average diameters of inhibition zone [1] | Inhibition of the growth of the Fusarium sambucinum fungi ([2]; 1 μmol/ml) | Inhibition of the growth of the Fusarium sambucinum fungi ([2]; 2.5 μmol/ml) | Inhibition of the growth of the Fusarium sambucinum fungi ([2]; 5 μmol/ml) | Inhibition of the growth of the Fusarium roseum fungi ([3]; 1 μmol/ml) | Inhibition of the growth of the Fusarium roseum fungi ([3]; 2.5 μmol/ml) | Inhibition of the growth of the Fusarium roseum fungi ([3]; 5 μmol/ml) | MIC [4] | MBC [4] | bactericidal activity (in words) [5] | inhibition of the growth of the bacteria (in words) [5] | MIC [6] | MBC [6] | MIC [7] | MBC [7] | further results
1 | CCCCCCCCCCCCNCC(O)C(O)C(O)C(C)O (stereo not shown) [compound IIIa] | 24 mm | 100% | 100% | 100% | 100% | 100% | 100% | 62.5 µg/mL (≈ 187 µM) | 62.5 µg/mL (≈ 187 µM) | showed a bactericidal activity | inhibition of the growth of the bacteria was observed | 16 µg/mL (≈ 48 µM) | 62.5 µg/mL (≈ 187 µM) | 32 µg/mL (≈ 95.9 µM) | 32 µg/mL (≈ 95.9 µM) | 
2 | CCCCCCCCCCCCNCC(O)C(O)C(O)C(O)CO (stereo not shown) [compound IIIc] | 18 mm | 98% | 100% | 100% | 100% | 100% | 100% | >500 µg/mL | >500 µg/mL | showed a bactericidal activity | inhibition of the growth of the bacteria was observed | >500 µg/mL | >500 µg/mL | 62.5 µg/mL (≈ 179 µM) | 62.5 µg/mL (≈ 179 µM) | 
3 | CCCCCNC1OC(C)[C@H](O)C(O)C1O (stereo partly shown) [compound Ie] |  | 95% | 96% | 100% | 94% | 96% | 100% |  |  | showed a bactericidal activity | inhibition of the growth of the bacteria was observed | 4 µg/mL (≈ 17.1 µM) | 8 µg/mL (≈ 34.3 µM) | 16 µg/mL (≈ 68.6 µM) | 16 µg/mL (≈ 68.6 µM) | zone of inhibition at 20000 µg/disc ([1]; Phytophthora infestans, 144 h, read-out: Average diameters of inhibition zone): 21 mm; Inhibition of the growth of the Fusarium sambucinum fungi ([2]; 10 μmol/ml): 100%; Inhibition of the growth of the Fusarium sambucinum fungi ([2]; 20 μmol/ml): 100%; Inhibition of the growth of the Fusarium roseum fungi ([3]; 10 μmol/ml): 100%; Inhibition of the growth of the Fusarium roseum fungi ([3]; 20 μmol/ml): 100%; MIC ([4]; Dickeya dianthicola, read-out: MIC): 16 µg/mL (≈ 68.6 µM); MBC ([4]; Dickeya dianthicola, read-out: MBC): 16 µg/mL (≈ 68.6 µM)
